One data set concerns hepatitis C virus (HCV). To be noted: treatment-naïve patients, boceprevir combined with peginterferon alpha-2b and ribavirin, cited from earlier work.
The conditions of data set [1]: patients with hepatitis C; adverse events infrequent (headache, fever, myalgia); cited from earlier work.
The nature of data set [2]: Metabolic stability in human liver microsomes. The class given is in vitro ADME. Particulars: for half-life at 0.25 μM: human, in vitro half-life, 0.5 mg/mL HLM, 0.25 μM test compound, 2 mM NADPH, pH 7.4, 37° C., 0-30 minutes; for % Difference: [(deuterated species) − (nondeuterated species)](100)/(nondeuterated species), t1/2 in HLM vs boceprevir. The method, then: Human liver microsomes (20 mg/mL) were obtained from Xenotech, LLC (Lenexa, Kans.). β-Nicotinamide adenine dinucleotide phosphate, reduced form (NADPH), magnesium chloride (MgCl2), and dimethyl sulfoxide (DMSO) were purchased from Sigma-Aldrich.
7.5 mM stock solutions of Compounds 103, 109, 130, 134, 154, 157 and 158, as well as boceprevir, were prepared in DMSO. The 7.5 mM stock solutions were diluted to 12.5 μM in acetonitrile (ACN). The 20 mg/mL human liver microsomes were diluted to 0.625 mg/mL in 0.1 M potassium phosphate buffer, pH 7.4, containing 3 mM MgCl2. The diluted microsomes (375 μL) were added to wells of a 96-well deep-well polypropylene plate in triplicate. 10 μL of the 12.5 μM test compound was added to the microsomes and the mixture was pre-warmed for 10 minutes. Reactions were initiated by addition of 125 μL of pre-warmed NADPH solution. The final reaction volume was 0.5 mL and contained 0.5 mg/mL human liver microsomes, 0.25 μM test compound, and 2 mM NADPH in 0.1 M potassium phosphate buffer, pH 7.4, and 3 mM MgCl2. The reaction mixtures were incubated at 37° C., and 50 μL aliquots were removed at 0, 5, 10, 20, and 30 minutes and added to shallow-well 96-well plates which contained 50 μL of ice-cold ACN with internal standard to stop the reactions. The plates were stored at 4° C. for 20 minutes after which 100 μl of water was added to the wells of the plate before centrifugation to pellet precipitated proteins. Supernatants were transferred to another 96-well plate and analyzed for amounts of parent remaining by LC-MS/MS using an Applied Bio-systems API 4000 mass spectrometer. 7-ethoxycoumarin (1 μM) was used as the positive control substrate.
The in vitro half-lives (t1/2s) for test compounds are calculated from the slopes of the linear regression of % parent remaining (ln) vs incubation time relationship using the following formula:
in vitro t1/2=0.693/k, where k=−[slope of linear regression of % parent remaining(ln) vs incubation time]
Data analysis is performed using Microsoft Excel Software.
The experiment was repeated four separate times.
Background: Liver microsomes are a subcellular fraction often used to study metabolism.

Like-named read-outs stand apart in the source and are kept apart here.

Broadly, the half-life is the time in which the quantity being followed falls by half. The low end stands for fast loss, the high end for slow loss. `CC(C)(C)NC(=O)NC(C(=O)N1CC2C(C1C(=O)NC(CC1CCC1)C(=O)C(N)=O)C2(C)C)C(C)(C)C` (stereo not drawn) [Boceprevir, N-(4-amino-1-cyclobutyl-3,4-dioxobutan-2-yl)-3-(2-(3-tert-butylureido)-3,3-dimethylbutanoyl)-6,6-dimethyl-3-azabicyclo[3.1.0]hexane-2-carboxamide]: the “sustained viral response (SVR) rates” value is 66-74% in the data set on hepatitis C virus (HCV) (after 12 weeks) and 55-56% in the data set on hepatitis C virus (HCV) (after 24 weeks). Moreover, in data set [1], the tolerability entry is reported as “well-tolerated”. The half-life at 0.25 μM in data set [2] (human liver microsomes) worked out at 19 min.
With `[2H]C([2H])([2H])C1(C([2H])([2H])[2H])[C@@H]2[C@@H](C(=O)NC(CC3CCC3)C(=O)C(N)=O)N(C(=O)[C@@H](NC(=O)NC(C([2H])([2H])[2H])(C([2H])([2H])[2H])C([2H])([2H])[2H])C(C([2H])([2H])[2H])(C([2H])([2H])[2H])C([2H])([2H])[2H])C[C@@H]21` (stereo partly drawn) [Compound 103, (1R,2S,5S)—N-(4-Amino-1-(cyclobutyl)-3,4-dioxobutan-2-yl)-3-((S)-2-(3-tert-butyl-d9-ureido)-3,3-di(methyl-d3)-4,4,4-d3-butanoyl)-6,6-di(methyl-d3)-3-azabicyclo[3.1.0]hexane-2-carboxamide], in data set [2], the “% Difference” value was determined as 32.0%. In data set [2] (human liver microsomes), this compound came in with a half-life at 0.25 μM of 25 min.
As for `[2H]C([2H])([2H])C1(C([2H])([2H])[2H])[C@@H]2[C@@H](C(=O)NC(CC3CCC3)C(=O)C(N)=O)N(C(=O)[C@@H](NC(=O)NC(C)(C)C)C(C)(C)C)C[C@@H]21` (stereo partly drawn) [Compound 134, (1R,2S,5S)—N-(4-Amino-1-cyclobutyl-3,4-dioxobutan-2-yl)-3-((S)-2-(3-tert-butylureido)-3,3-dimethylbutanoyl)-6,6-di(methyl-d3)-3-azabicyclo[3.1.0]hexane-2-carboxamide], in data set [2], the “% Difference” value turned out to be 7.9%. In addition, the half-life at 0.25 μM in data set [2] (microsomes) turned out to be 19.1 min.
Consider `[2H]C([2H])([2H])C(NC(=O)N[C@H](C(=O)N1C[C@H]2[C@@H]([C@H]1C(=O)NC(CC1CCC1)C(=O)C(N)=O)C2(C)C)C(C([2H])([2H])[2H])(C([2H])([2H])[2H])C([2H])([2H])[2H])(C([2H])([2H])[2H])C([2H])([2H])[2H]` (stereo partly drawn) [Compound 109, (1R,2S,5S)—N-(4-Amino-1-cyclobutyl-3,4-dioxobutan-2-yl)-6,6-dimethyl-3-((S)-4,4,4-(methyl-d3)-2-(3-(1,1,1,3,3,3-di(methyl-d3)-2-(methyl-d3)propan-2-yl)ureido)-3,3-di(methyl-d3)butanoyl)-3-azabicyclo[3.1.0]hexane-2-carboxamide], for which, in data set [2], the “% Difference” value came to 21.8%. The compound also returned a half-life at 0.25 μM in data set [2] (human liver microsomes) of 23.2 min.
For `[2H]C([2H])([2H])C1(C([2H])([2H])[2H])[C@@H]2[C@@H](C(=O)NC(C(=O)C(N)=O)C([2H])([2H])C3([2H])C([2H])([2H])C([2H])([2H])C3([2H])[2H])N(C(=O)[C@@H](NC(=O)NC(C)(C)C)C(C)(C)C)C[C@@H]21` (stereo partly drawn) [Compound 130, (1R,2S,5S)—N-(4-Amino-1-(cyclobutyl-d7)-1,1-d2-3,4-dioxobutan-2-yl)-3-((S)-2-(3-tert-butylureido)-3,3-dimethylbutanoyl)-6,6-di(methyl-d3)-3-azabicyclo[3.1.0]hexane-2-carboxamide], in that order: 65.3% and 31.4 min.
On to `[2H]C([2H])([2H])C1(C([2H])([2H])[2H])[C@@H]2[C@@H](C(=O)NC(C(=O)C(N)=O)C([2H])([2H])C3([2H])C([2H])([2H])C([2H])([2H])C3([2H])[2H])N(C(=O)[C@@H](NC(=O)NC(C([2H])([2H])[2H])(C([2H])([2H])[2H])C([2H])([2H])[2H])C(C([2H])([2H])[2H])(C([2H])([2H])[2H])C([2H])([2H])[2H])C[C@@H]21` (stereo partly drawn) [Compound 158, (1R,2S,5S)—N-(4-Amino-1-(cyclobutyl-d7)-1,1-d2-3,4-dioxobutan-2-yl)-3-((S)-2-(3-(tert-butyl-d9)ureido)-3,3-di(methyl-d3)-4,4,4-d3-butanoyl)-6,6-di(methyl-d3)-3-azabicyclo[3.1.0]hexane-2-carboxamide], for which, in data set [2], the “% Difference” value came to 96.3%. This compound also registered a half-life at 0.25 μM in data set [2] (human liver microsomes) of 37.2 min.
For the compound `[2H]C1([2H])C([2H])([2H])C([2H])(CC(NC(=O)[C@@H]2[C@@H]3[C@H](CN2C(=O)[C@@H](NC(=O)NC(C)(C)C)C(C)(C)C)C3(C)C)C(=O)C(N)=O)C1([2H])[2H]` (stereo partly drawn) [Compound 157, (1R,2S,5S)—N-(4-Amino-1-(cyclobutyl-d7)-3,4-dioxobutan-2-yl)-3-((S)-2-(3-tert-butylureido)-3,3-dimethylbutanoyl)-6,6-dimethyl-3-azabicyclo[3.1.0]hexane-2-carboxamide], the “% Difference” value in data set [2] is 39.9%. In data set [2] (human liver microsomes), the half-life at 0.25 μM was 26.6 min.
`[2H]C([2H])(C(NC(=O)[C@@H]1[C@@H]2[C@H](CN1C(=O)[C@@H](NC(=O)NC(C)(C)C)C(C)(C)C)C2(C)C)C(=O)C(N)=O)C1([2H])C([2H])([2H])C([2H])([2H])C1([2H])[2H]` (stereo partly drawn) [Compound 154, (1R,2S,5S)—N-(4-Amino-1-(cyclobutyl-d7)-1,1-d2-3,4-dioxobutan-2-yl)-3-((S)-2-(3-tert-butylureido)-3,3-dimethylbutanoyl)-6,6-dimethyl-3-azabicyclo[3.1.0]hexane-2-carboxamide]: the “% Difference” value in data set [2] is reported as 51.4%. The same compound came in with a half-life at 0.25 μM in data set [2] (human liver microsomes) of 28.7 min.

These data come from patent publication US20120244122A1, “Peptides for the Treatment of HCV Infections” (priority 2009, published 2012).
